In PubChem BioAssay AID248 (DTP/NCI, 2004):
“And” between values parts separate entries of the source, which are not always exact repeats. Equal entries are not always repeated. Inconclusive results and toxic doses are left out. Rule as the data show it: active = T/C of 150% or more; inactive = T/C below 125%.

Tested on: L1210 leukemia ip in BDF1 mice, survival T/C
Assay: NCI In Vivo Anticancer Drug Screen. Data for tumor model L1210 Leukemia (intraperitoneal) in B6D2F1 (BDF1) mice
Settings: endpoint: mean survival time, higher = longer survival
How it was run: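 Survival endpoint. Drug-treated group vs vehicle group, expressed as T divided by C. Tumor passaged by transplantation.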

[1] = dose: 100.0 mg/kg/injection, schedule: Q04DX003 (ip), vehicle: saline with Tween-80
[2] = dose: 200.0 mg/kg/injection, schedule: Q04DX003 (ip), vehicle: saline with Tween-80
[3] = dose: 400.0 mg/kg/injection, schedule: Q04DX003 (ip), vehicle: saline with Tween-80
[4] = dose: 100.0 mg/kg/injection, schedule: Q04DX003 (ip), vehicle: Klucel (hydroxypropylcellulose) (HPC)
[5] = dose: 200.0 mg/kg/injection, schedule: Q04DX003 (ip), vehicle: Klucel (hydroxypropylcellulose) (HPC)
[6] = dose: 400.0 mg/kg/injection, schedule: Q04DX003 (ip), vehicle: Klucel (hydroxypropylcellulose) (HPC)
[7] = dose: 100.0 mg/kg/injection, schedule: Q01DX001 (ip), vehicle: saline
[8] = dose: 200.0 mg/kg/injection, schedule: Q01DX001 (ip), vehicle: saline
[9] = dose: 400.0 mg/kg/injection, schedule: Q01DX001 (ip), vehicle: saline
[10] = dose: 100.0 mg/kg/injection, schedule: Q01DX009 (ip), vehicle: Klucel (hydroxypropylcellulose) (HPC)
[11] = dose: 200.0 mg/kg/injection, schedule: Q01DX009 (ip), vehicle: Klucel (hydroxypropylcellulose) (HPC)
[12] = dose: 400.0 mg/kg/injection, schedule: Q01DX009 (ip), vehicle: Klucel (hydroxypropylcellulose) (HPC)
[13] = dose: 25.0 mg/kg/injection, schedule: Q04DX002 (ip), vehicle: saline
[14] = dose: 50.0 mg/kg/injection, schedule: Q04DX002 (ip), vehicle: saline
[15] = dose: 100.0 mg/kg/injection, schedule: Q04DX002 (ip), vehicle: saline with Tween-80
[16] = dose: 100.0 mg/kg/injection, schedule: Q04DX002 (ip), vehicle: saline
[17] = dose: 50.0 mg/kg/injection, schedule: Q01DX001 (ip), vehicle: carboxymethylcellulose (CMC)
[18] = dose: 100.0 mg/kg/injection, schedule: Q01DX001 (ip), vehicle: carboxymethylcellulose (CMC)
[19] = dose: 200.0 mg/kg/injection, schedule: Q01DX001 (ip), vehicle: carboxymethylcellulose (CMC)
[20] = dose: 400.0 mg/kg/injection, schedule: Q01DX001 (ip), vehicle: carboxymethylcellulose (CMC)
[21] = dose: 100.0 mg/kg/injection, schedule: Q01DX009 (ip), vehicle: saline with Tween-80
[22] = dose: 200.0 mg/kg/injection, schedule: Q01DX009 (ip), vehicle: saline with Tween-80
[23] = dose: 400.0 mg/kg/injection, schedule: Q01DX009 (ip), vehicle: saline with Tween-80

Measured: T/C

O=C(NOC(=O)c1ccccc1)c1ccccc1
inactive: dose: 25.0 mg/kg/injection, schedule: Q04DX002 (ip), vehicle: Klucel (hydroxypropylcellulose) (HPC) 97 % of control | dose: 50.0 mg/kg/injection, schedule: Q04DX002 (ip), vehicle: Klucel (hydroxypropylcellulose) (HPC) 97 % of control | dose: 100.0 mg/kg/injection, schedule: Q04DX002 (ip), vehicle: Klucel (hydroxypropylcellulose) (HPC) 97 % of control | [1] 103 % of control | [2] 91 % of control | [3] 101 % of control

COC(=O)CN(C(=S)c1ccccc1)c1ccccc1
inactive: [4] 104 % of control | [5] 96 % of control | [6] 94 % of control

CCCCOB(OCCCC)c1ccc(B(OCCCC)OCCCC)cc1
inactive: [7] 97 % of control | [8] 101 % of control | [9] 89 % of control

COc1ccc(OC)c2c(C)cc(Cl)nc12
inactive: [7] 104 % of control | [8] 98 % of control | [9] 110 % of control

CC(=O)c1ccc(CC23CC4CC(CC(C4)C2)C3)cc1
inactive: [10] 99 % of control | [11] 90 % of control | [12] 94 % of control

CCOC=Nc1c(/C=C(/O)C(=O)OCC)c[n+]([O-])nc1OC
inactive: dose: 25.0 mg/kg/injection, schedule: Q04DX002 (ip), vehicle: saline with Tween-80 92 % of control | [13] 92 % of control | dose: 50.0 mg/kg/injection, schedule: Q04DX002 (ip), vehicle: saline with Tween-80 96 % of control | [14] 96 % of control | [15] 89 % of control | [16] 96 % of control

CCCC1C(CC)C=NN1Cc1ccccc1 (centres undefined)
inactive: [17] 88 % of control | [18] 100 % of control | [19] 94 % of control | [20] 92 % of control

O=C(N(CCc1ccc(O)cc1)Cc1ccc2c(c1)OCO2)C(F)(F)F
inactive: dose: 100.0 mg/kg/injection, schedule: Q04DX003 (ip), vehicle: gum acacia 91 % of control | dose: 200.0 mg/kg/injection, schedule: Q04DX003 (ip), vehicle: gum acacia 91 % of control | dose: 400.0 mg/kg/injection, schedule: Q04DX003 (ip), vehicle: gum acacia 88 % of control

COC1C(O)C(CO)OC1n1ccc(N)nc1=O (centres undefined)
inactive: [7] 95 % of control | [8] 95 % of control | [9] 98 % of control

CCCCCCCC(=O)N(CCCCC)CCCCC
inactive: [18] 99 % of control | dose: 100.0 mg/kg/injection, schedule: Q01DX009 (ip), vehicle: carboxymethylcellulose (CMC) 93 % of control and 101 % of control | dose: 100.0 mg/kg/injection, schedule: Q04DX002 (ip), vehicle: carboxymethylcellulose (CMC) 97 % of control | dose: 100.0 mg/kg/injection, schedule: Q04DX003 (ip), vehicle: carboxymethylcellulose (CMC) 101 % of control | [19] 96 % of control | dose: 200.0 mg/kg/injection, schedule: Q01DX009 (ip), vehicle: carboxymethylcellulose (CMC) 97 % of control and 90 % of control | dose: 200.0 mg/kg/injection, schedule: Q04DX002 (ip), vehicle: carboxymethylcellulose (CMC) 107 % of control | dose: 200.0 mg/kg/injection, schedule: Q04DX003 (ip), vehicle: carboxymethylcellulose (CMC) 98 % of control | [20] 91 % of control | dose: 400.0 mg/kg/injection, schedule: Q04DX002 (ip), vehicle: carboxymethylcellulose (CMC) 96 % of control | dose: 400.0 mg/kg/injection, schedule: Q04DX003 (ip), vehicle: carboxymethylcellulose (CMC) 102 % of control

O=C(CCCl)NCCCCCCNC(=O)CCCl
inactive: [7] 100 % of control | [8] 89 % of control | [9] 90 % of control

O=c1nc2n(CCO)c3ccccc3nc-2c(=O)[nH]1
inactive: [13] 100 % of control | [14] 106 % of control | [16] 95 % of control

O=C1CCC(=O)N1c1ccc(Br)cc1
inactive: [17] 102 % of control | [18] 102 % of control | [19] 98 % of control | [20] 98 % of control

CCCCCCCCCCCCc1c(C(OC)OC)[nH]c(=S)[nH]c1=O
inactive: [21] 94 % of control | [1] 98 % of control | [22] 100 % of control | [2] 96 % of control | [23] 103 % of control | [3] 93 % of control

CCCC1(CC)C(=O)N=C(N)NC1=O (centres undefined)
inactive: dose: 25.0 mg/kg/injection, schedule: Q01DX001 (ip), vehicle: Klucel (hydroxypropylcellulose) (HPC) 95 % of control | dose: 50.0 mg/kg/injection, schedule: Q01DX001 (ip), vehicle: Klucel (hydroxypropylcellulose) (HPC) 104 % of control

c1cnc2c3c(ccc2c1)CN(C12CC4CC(CC(C4)C1)C2)CO3
inactive: [1] 102 % of control | [2] 107 % of control

O=C(Nc1cccc2ccccc12)OCc1ccco1
inactive: dose: 100.0 mg/kg/injection, schedule: Q01DX001 (ip), vehicle: saline with Tween-80 96 % of control | [21] 93 % of control and 96 % of control | [15] 96 % of control and 118 % of control | [1] 105 % of control | dose: 200.0 mg/kg/injection, schedule: Q01DX001 (ip), vehicle: saline with Tween-80 97 % of control | [22] 100 % of control and 86 % of control | dose: 200.0 mg/kg/injection, schedule: Q04DX002 (ip), vehicle: saline with Tween-80 96 % of control and 91 % of control | [2] 100 % of control | dose: 400.0 mg/kg/injection, schedule: Q01DX001 (ip), vehicle: saline with Tween-80 103 % of control | [23] 93 % of control and 94 % of control | dose: 400.0 mg/kg/injection, schedule: Q04DX002 (ip), vehicle: saline with Tween-80 104 % of control | [3] 103 % of control

Cc1ccc(Cl)cc1NC(=O)COc1ccc(Cl)cc1
inactive: [10] 88 % of control | [4] 98 % of control | [11] 94 % of control | [5] 88 % of control | [12] 91 % of control | [6] 103 % of control

CCCCOP(=O)(OCCCC)[O][Pb]([CH2]C)([CH2]C)[CH2]C
inactive: dose: 3.13 mg/kg/injection, schedule: Q01DX009 (ip), vehicle: saline with Tween-80 101 % of control | dose: 6.25 mg/kg/injection, schedule: Q01DX009 (ip), vehicle: saline with Tween-80 91 % of control

CCCSCSCCC
inactive: [7] 105 % of control | dose: 100.0 mg/kg/injection, schedule: Q01DX009 (ip), vehicle: saline 105 % of control | dose: 100.0 mg/kg/injection, schedule: Q04DX003 (ip), vehicle: saline 98 % of control | [8] 98 % of control | dose: 200.0 mg/kg/injection, schedule: Q01DX009 (ip), vehicle: saline 97 % of control | dose: 200.0 mg/kg/injection, schedule: Q04DX003 (ip), vehicle: saline 104 % of control | [9] 98 % of control | dose: 400.0 mg/kg/injection, schedule: Q01DX009 (ip), vehicle: saline 100 % of control | dose: 400.0 mg/kg/injection, schedule: Q04DX003 (ip), vehicle: saline 97 % of control
